Measured values reported in publication PMC3670040, “Structure of Lipid Kinase p110β/p85β Elucidates an Unusual SH2-Domain-Mediated Inhibitory Mechanism” (Molecular Cell, 2011).
Square brackets hold non-standard residues; d marks the D form. Ends that are not written are not given here. pY = N[C@@H](Cc1ccc(OP(=O)(O)O)cc1)C(=O)O

System: p110β/p85β-nic
Experiment: ATPase activity (ADP formation) in the absence of lipid substrate, Transcreener
Type: biochemical, mouse
Conditions: p110β/p85-niSH2 and p110β/p85-icSH2 complexes; absence of lipid substrate
Protocol: Figure 1 Inhibition of p110β by p85-Type Regulatory Subunits and Activation of the Complexes by RTK Phosphopeptide (A) Domain organization of p110β and the regulatory subunits p85α, p85β, and p55γ. The color scheme for the domains is used for all figures, unless otherwise stated. […] The inhibition is released upon addition of the 10 μM PDGFR pY2. […] The y axis is expressed as a change in fluorescence polarization (ΔmP), which is obtained by subtracting the observed polarization for the construct at a given enzyme concentration from the maximum fluorescence polarization for that construct. The plateau in these assays arises due to the competitive nature of the ADP detection system, based on displacement of ADP-Alexa 633 tracer from the ADP^2-antibody by ADP generated during the PI3K assay (see Supplemental Experimental Procedures). All measurements were done in triplicates, and the error bars indicate the standard error of the mean (SEM). […]
The lipid kinase activity was determined using the Transcreener ADP2 FP Assay (BellBrook Labs, Madison, WI) according to manufacturer‟s specifications. This non-radioactive assay measures activity by quantitating the amount of ADP formed. The ADP formed by PI3K competes with fluorescent ADP tracer for binding to an anti-ADP antibody, thereby decreasing fluorescence polarization. […]

- ATPase activity in the presence of pY2: enhanced
Substance: ESDGG[pY]MDMSKDESID[pY]VPMLDMKGDIKYADIE [pY2, bis-phosphopeptide (PDGFR 735–767, with pY740 and pY751)]
